Values belong to the compound of their own block, whether it stands above or below them. Non-standard residues stand in square brackets, D forms with d. Residues, ends and D or L forms follow the SMILES beside them. *: point of attachment. Stearoyl = CCCCCCCCCCCCCCCCCC(=O)*; Lauroyl = CCCCCCCCCCCC(=O)*
Experiments:
[1] = system: rat cerebral cortical cell cultures (neurons) treated with β-amyloid peptide (amino acids 25-35); experiment: Neuronal survival assay, protection against β-amyloid toxicity; type: cell-based; conditions: 5 days
Method: β-Amyloid peptide is known to be involved in Alzheimer's disease and is a toxic substance to neurons grown in culture (Pike et al., J. of Nezarosci., 13(4), 1676-1687 (1993); Yankner et al., Science, 250:279-282 (1990); Gozes et. al., Proc. Natl. Acad. Sci. USA, 93:[…] (1996)).
Rat cerebral cortical cell cultures were prepared by a slight modification of the techniques described by Forsythe and Westbrook (J. Physiol. Lord. 365:515, (1988)), in which cerebral cortex was used instead of hippocampus and newborn rats were utilized instead of E16 mice. Cerebral cortical cells (1.5-15×10^5 cells/35 mm dish) were plated on confluent cerebral cortical astrocyte feeder cultures as described (Gozes et al., J. Pharmacol Erp. Therap., 257:959-966 (1991)). The culture medium was DMEM-(Dulbeco Modified Eagle Medium) containing 5% horse serum and N3 [media supplement containing a hormone cocktail, according to (Romijn et al., Brain Res., 254:(4),583-589 (1981))]. After eight days growth in vitro, the cultures were given a complete change of medium and then were treated with the β-amyloid peptide (amino acids 25-35) for 5 days.
The β-amyloid peptide fragment was dissolved in water to a finalconcentration of 2.5 mM. […] Neurons were counted without knowledge of type of treatment as before. […]

[2] = system: male rats (Wistar) injected i.c.v. with the cholinergic blocker AF64A; conditions: rat, in vivo
Method: In vivo Model for Cholinergic Inhibition. 18 Male rats (Wistar, 250-300 g) were injected intracerebroventricularly (i.c.v.) at a rate of 0.21 μl/min., using plastic tubing (PE-20) attached to 25G needle; controls received an injection of saline 2 μl/side, experimental animals received injections of the cholinergic blocker (ethylcholine aziridium) AF64A (3 nmol/2 μl/side).
Drug treatment was initiated 7-10 days after AF64A injection. Animals were divided into two equal groups. Test group received daily nasal administration of St-Lys-Lys-Tyr-Leu-NH2 (SEQ ID NO:6) dissolved in 10% Sefsol™ and 40% isopropanol at a concentration of 10 μg/40 μl (20 μl administered through each nostril). […]
Rats were placed in a circular pool, 1.26 m in diameter, 0.2 m deep, equipped with a clear plexiglas column, with a 13.3 cm platform reaching just below the surface of the water (22-24° C). […] The latency of reaching the platform was recorded for each rat (in seconds) and the changes over days of training were graphed, which reflect learning and memory.
FIG. 3 depicts the effects of St-Lys-Lys-Tyr-D-Ala-NH2 (indicated KKYO in the figure) on learning and memory in the Alzheimer's in vivo test (AF64A-cholinotoxicity test) as described above. […] Following this test the platform is placed back in the water pool, but this time it is visible to the swimming rat and the time required to reach it is measured. […]

[3] = Biodistribution to brain after intranasal application of radioiodinated conjugate; type: in vivo, rat; conditions: thirty minutes after application, FIG. 15
Method: St-Lys-Lys-Tyr-Leu-NH2 (SEQ ID NO:6) was radioiodinated by using the chloramine T methods as described in Gozes et al., Endocrinology, 134:2121-2125 (1994) and about 7.8×10^6 cpm/2 μl 5% Sefsol™, 20% isopropanol/rat were applied intranasally to 250-300 g rats. Animals were sacrificed 30 minutes following drug administration and the frontal cortex was removed, weighed and counted for radioactivity in a gamma counter. Radioactive tissue samples (containing 1400 cpm/gram sample) were thereafter homogenized and subjected to centrifugation (5,400 g for 25 min.). Supernatants were then subjected to HPLC analysis against St-Lys-Lys-Tyr-Leu-NH2 (SEQ ID NO:6) as a marker (eluting using an acetonitrile gradient at fraction 25). Samples were monitored for radioactivity in a gamma counter.

[4] = system: Apolipoprotein E-deficient newborn mice; experiment: Acquisition of developmental milestones in a model for mental retardation; type: in vivo; conditions: ApoE deficient newborn mice, s.c. injection
Method: It has recently been discovered that mice deficient in apolipoprotein E (ApoE) (Plump et al., Cell, 71:343-363 (1992)) are retarded in their acquisition of developmental milestones.
8 newborn normal mice were injected (s.c. 1.2 μg 120 μu) with St-Lys-Lys-Tyr-Leu-NH2 or with saline. 8 ApoE deficient newborn mice were treated similarly.

[5] = same amounts of radiolabeled conjugate; Gozes et al., Endocrinology 134:2121-2125 (1994); cited from earlier work

Compound: CCCCCCCCCCCC(=O)N[C@@H](CCCCN)C(=O)N[C@@H](CCCCN)C(=O)N[C@@H](Cc1ccc(O)cc1)C(=O)N[C@@H](CC(C)C)C(N)=O [Lau-Lys-Lys-Tyr-Leu-NH2] (Lauroyl-KKYL-NH2)
Active concentration (M) ([1]; added together with 25 μM β-amyloid peptide (25-35), NSE-stained neuron counts): 10^-11 -10^-10 M | Neuronal survival (%) ([1]; at the active concentration, with 25 μM β-amyloid peptide (25-35), as compared to control): 83-84%

time required to reach the visible platform (possible motor deficits) [2]: no differences between the groups
Compound: CCCCCCCCCCCCCCCCCC(=O)N[C@@H](CCCCN)C(=O)N[C@@H](CCCCN)C(=O)N[C@@H](Cc1ccc(O)cc1)C(=O)N[C@H](C)C(N)=O [St-Lys-Lys-Tyr-D-Ala-NH2] (Stearoyl-KKY[dA]-NH2)

Compound: CCCCCCCCCCCCCCCCCC(=O)N[C@@H](CCCCN)C(=O)N[C@@H](CCCCN)C(=O)N[C@@H](Cc1ccc(O)cc1)C(=O)N[C@@H](CC(C)C)C(N)=O [St-Lys-Lys-Tyr-Leu-NH2] (Stearoyl-KKYL-NH2)
intact conjugate in brain extract by HPLC [3]: could be observed in the brain

Compound: St-Nle^17 -VIP-NH2
forelimb placing behavior acquisition ([4]; versus untreated ApoE deficient mice, FIGS. 10 and 11): improved their placing acquisition essentially to the level of control | cliff avoidance acquisition ([4]; FIGS. 12 and 13): even better cliff avoidance acquisition than normal controls or similar cliff avoidance behavior to control | radioactivity obtained in the intestine [5]: 3700 cpm/g

Source: patent US6239107A, “Conjugates of lipophilic moieties and fragments of vasoactive intestinal peptide (VIP)” (Yeda Research & Development Co., Ltd., priority 1996, dated 2001)
